According to US10093623B2, “Cyclic amides as MetAP-2 inhibitors” (MERCK PATENT GmbH, priority 2012, dated 2018):

Target: MetAP-2 (Homo sapiens, UniProt P50579)
Assay: MetAP-2 activity measurement (coupled enzymatic reactions, Met-Arg-Ser substrate, dianisidine detection at 450 nm)
Assay type: biochemical
Conditions: Inhibition of MetAP-2; read-out: IC50 enzyme
Experimental: MetAP-2 Activity Measurement
The MetAP-2 activity is determined by coupling enzymatic reactions. The tripeptide Met-Arg-Ser (MAS) is employed as substrate. The methionine liberated is firstly converted into Metox and H2O2 by L-aminooxidase (AAO). In the second step, the peroxidase (POD) with the aid of the H2O2 catalyses the oxidation of the leukodye dianisidine to dianisidineox, the increase of which is detected photometrically at 450 nm.
MetAP-2 activity can be recorded continuously as kinetics. The reaction scheme illustrates that one mol of dianisidineox is formed per mol of methionene. The MetAP-2 enzyme activity can therefore be calculated directly as A absorption per time unit. Qualification of the MetAP-2 activity (mol of Met/time unit) is possible with the aid of the dianisidineox extinction coefficient.
The change in extinction per time unit is depicted graphically and a slope calculation is carried out in the visually linear region of the reaction.

Chain of MetAP-2 (P50579 whole entry, species assumed): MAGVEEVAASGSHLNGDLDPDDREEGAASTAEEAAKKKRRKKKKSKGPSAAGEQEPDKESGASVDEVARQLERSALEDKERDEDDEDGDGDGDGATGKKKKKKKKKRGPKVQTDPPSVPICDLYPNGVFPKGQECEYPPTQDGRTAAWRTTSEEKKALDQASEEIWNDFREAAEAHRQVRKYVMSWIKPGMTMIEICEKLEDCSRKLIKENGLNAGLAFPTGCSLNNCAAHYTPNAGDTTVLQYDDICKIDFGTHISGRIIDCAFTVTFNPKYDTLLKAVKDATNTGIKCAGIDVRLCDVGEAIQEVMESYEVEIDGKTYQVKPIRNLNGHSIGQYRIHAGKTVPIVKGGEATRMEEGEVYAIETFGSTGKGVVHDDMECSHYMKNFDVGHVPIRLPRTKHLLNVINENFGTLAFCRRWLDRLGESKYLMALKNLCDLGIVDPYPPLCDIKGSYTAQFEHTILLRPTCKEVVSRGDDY

| Compound | IC50 [nM] |
| --- | --- |
| O=C(c1cccc(N2CC[C@](O)(C(=O)NCc3cc(F)cc(Cl)c3)C2=O)c1)N1CCCCC1 [A95, N-(3-Chloro-5-fluorobenzyl)-(S)-3-hydroxy-2-oxo-1-[3-(piperidin-1-carbonyl)phenyl]pyrrolidine-3-carboxamide] | 10 to 1000 |
| O=C1NCCc2cc(N3CC[C@](O)(C(=O)NCc4cc(F)cc(Cl)c4)C3=O)ccc21 [A96, N-(3-Chloro-5-fluorobenzyl)-(S)-3-hydroxy-2-oxo-1-(1-oxo-1,2,3,4-tetrahydroisoquinolin-6-yl)pyrrolidine-3-carboxamide] | 10 to 1000 |
| N#Cc1ccc(N2CC[C@](O)(C(=O)NCc3cc(F)cc(Cl)c3)C2=O)cn1 [A97, N-(3-Chloro-5-fluorobenzyl)-(S)-1-(6-cyanopyridin-3-yl)-3-hydroxy-2-oxopyrrolidine-3-carboxamide] | 10 to 1000 |
| COC(=O)c1cc(N2CCC(O)(C(=O)NCc3cc(F)cc(Cl)c3)C2=O)cnc1C (centres unmarked) [A100, Methyl 5-[3-(3-chloro-5-fluorobenzylcarbamoyl)-3-hydroxy-2-oxopyrrolidin-1-yl]-2-methylnicotinate] | 10 to 1000 |
| CC1(C)CN(c2ccccc2)C(=O)[C@@]1(O)C(=O)NCc1cc(F)cc(Cl)c1 [A101, N-(3-Chloro-5-fluorobenzyl)-(S)-3-hydroxy-4,4-dimethyl-2-oxo-1-phenylpyrrolidine-3-carboxamide] | > 10000 |
| CN(CCO)C(=O)c1cccc(N2CC[C@@](O)(C(=O)NCc3cc(F)cc(Cl)c3)C2=O)c1 [A102, N-(3-Chloro-5-fluorobenzyl)-(R)-3-hydroxy-1-{3-[(2-hydroxy-ethyl)methylcarbamoyl]phenyl}-2-oxopyrrolidine-3-carboxamide] | 1000 to 10000 |
| O=C(NCCCO)c1cccc(N2CC[C@@](O)(C(=O)NCc3cc(F)cc(Cl)c3)C2=O)c1 [A103, N-(3-Chloro-5-fluorobenzyl)-(R)-3-hydroxy-1-[3-(3-hydroxy-propylcarbamoyl)phenyl]-2-oxo-pyrrolidine-3-carboxamide] | 1000 to 10000 |
| O=C(c1cccc(N2CC[C@@](O)(C(=O)NCc3cc(F)cc(Cl)c3)C2=O)c1)N1CCCCC1 [A104, N-(3-Chloro-5-fluorobenzyl)-(R)-3-hydroxy-2-oxo-1-[3-(piperidin-1-carbonyl)phenyl]pyrrolidine-3-carboxamide] | > 10000 |
| O=C1NCCc2cc(N3CC[C@@](O)(C(=O)NCc4cc(F)cc(Cl)c4)C3=O)ccc21 [A105, N-(3-Chloro-5-fluorobenzyl)-(R)-3-hydroxy-2-oxo-1-(1-oxo-1,2,3,4-tetrahydroisoquinolin-6-yl)pyrrolidine-3-carboxamide] | > 10000 |
| N#Cc1ccc(N2CC[C@@](O)(C(=O)NCc3cc(F)cc(Cl)c3)C2=O)cn1 [A106, N-(3-Chloro-5-fluorobenzyl)-(R)-1-(6-cyanopyridin-3-yl)-3-hydroxy-2-oxopyrrolidine-3-carboxamide] | > 10000 |
| N#Cc1cncc(N2CC[C@](O)(C(=O)NCc3cc(F)cc(Cl)c3)C2=O)c1 [A107, N-(3-Chloro-5-fluorobenzyl)-(S)-1-(5-cyanopyridin-3-yl)-3-hydroxy-2-oxopyrrolidine-3-carboxamide] | 1000 to 10000 |
| C=C(Cc1ccccc1)C(=O)[C@@]1(O)CCN(c2ccccc2)C1=O [A110, (S)-3-(2-Benzylacryloyl)-3-hydroxy-1-phenylpyrrolidin-2-one] | > 10000 |
| C=C(Cc1ccccc1)C(=O)[C@]1(O)CCN(c2ccccc2)C1=O [A111, (R)-3-(2-Benzylacryloyl)-3-hydroxy-1-phenylpyrrolidin-2-one] | > 10000 |
| O=C(NCc1cc(F)cc(Cl)c1)C1(O)C(=O)N(c2ccccc2)CC12COC2 (centres unmarked) [A113, N-(3-Chloro-5-fluorobenzyl)-8-hydroxy-7-oxo-6-phenyl-2-oxa-6-azaspiro[3.4]octane-8-carboxamide] | > 10000 |
| CNc1ccc(N2CCC(O)(C(=O)NCc3cc(F)cc(Cl)c3)C2=O)cn1 (centres unmarked) [A116, N-(3-Chloro-5-fluorobenzyl)-3-hydroxy-1-(6-methylamino-pyridin-3-yl)-2-oxopyrrolidine-3-carboxamide] | 10 to 1000 |
| O=C(NCc1cc(F)cc(Cl)c1)C1(O)CCN(c2cnc3c(c2)OCCN3)C1=O (centres unmarked) [A118, N-(3-Chloro-5-fluorobenzyl)-1-(3,4-Dihydro-2H-pyrido[3,2-b]-1,4-oxazin-7-yl)-3-hydroxy-2-oxopyrrolidine-3-carboxamide] | 10 to 1000 |
| CC1CC(O)(C(=O)NCc2cc(F)cc(Cl)c2)C(=O)N1c1ccccc1 (centres unmarked) [A119, N-(3-chloro-5-fluorobenzyl)-3-hydroxy-5-methyl-2-oxo-1-phenylpyrrolidine-3-carboxamide] | 1000 to 10000 |
| CC(=O)N[C@H]1CC[C@H](N2CCC(O)(C(=O)NCc3cc(F)cc(Cl)c3)C2=O)CC1 (some centres unmarked) [A122, N-(3-Chloro-5-fluorobenzyl)-1-(4-acetylaminocyclohexyl)-3-hydroxy-2-oxopyrrolidine-3-carboxamide] | 1000 to 10000 |
| CS(=O)(=O)N[C@H]1CC[C@H](N2CCC(O)(C(=O)NCc3cc(F)cc(Cl)c3)C2=O)CC1 (some centres unmarked) [A123, N-(3-Chloro-5-fluorobenzyl)-3-hydroxy-1-(4-methane-sulfonylaminocyclohexyl)-2-oxo-pyrrolidine-3-carboxamide] | 1000 to 10000 |
| CC(=O)NC1CCCC(N2CCC(O)(C(=O)NCc3cc(F)cc(Cl)c3)C2=O)C1 (centres unmarked) [A126, N-(3-Chloro-5-fluorobenzyl)-1-(3-acetylaminocyclohexyl)-3-hydroxy-2-oxopyrrolidine-3-carboxamide] | 1000 to 10000 |
| CCN[C@H]1CC[C@H](N2CCC(O)(C(=O)NCc3cc(F)cc(Cl)c3)C2=O)CC1 (some centres unmarked) [A127, N-(3-Chloro-5-fluorobenzyl)-1-(4-ethylaminocyclohexyl)-3-hydroxy-2-oxopyrrolidine-3-carboxamide] | 1000 to 10000 |
| CC1(C)O[C@H]2[C@H](CCC[C@@H]2N2CCC(O)(C(=O)NCc3cc(F)cc(Cl)c3)C2=O)O1 (stereo partly drawn) [A129, N-(3-Chloro-5-fluorobenzyl)-1-((3aR,4S,7aS)-2,2-dimethyl-hexahydrobenzo-1,3-dioxol-4-yl)-3-hydroxy-2-oxopyrrolidine-3-carboxamide] | 1000 to 10000 |

Second part, the molecule after the results:

| IC50 [nM] | Compound |
| --- | --- |
| 10 to 1000 | O=C(NCCCO)c1cccc(N2CC[C@](O)(C(=O)NCc3cc(F)cc(Cl)c3)C2=O)c1 [A94, N-(3-Chloro-5-fluorobenzyl)-(S)-3-hydroxy-1-[3-(3-hydroxy-propylcarbamoyl)phenyl]-2-oxo-pyrrolidine-3-carboxamide] |
| > 10000 | N#Cc1cncc(N2CC[C@@](O)(C(=O)NCc3cc(F)cc(Cl)c3)C2=O)c1 [A98, N-(3-Chloro-5-fluorobenzyl)-(R)-1-(5-cyanopyridin-3-yl)-3-hydroxy-2-oxopyrrolidine-3-carboxamide] |
| 10 to 1000 | O=C(NCc1cc(F)cc(Cl)c1)[C@@]1(O)CCN(c2ccc(C(F)(F)F)nc2)C1=O [A99, N-(3-Chloro-5-fluorobenzyl)-(S)-3-hydroxy-2-oxo-1-(6-trifluoromethylpyridin-3-yl)-pyrrolidine-3-carboxamide] |
| > 10000 | O=C(NCc1cc(F)cc(Cl)c1)[C@]1(O)CCN(c2ccc(C(F)(F)F)nc2)C1=O [A108, N-(3-Chloro-5-fluorobenzyl)-(R)-3-hydroxy-2-oxo-1-(6-trifluoromethylpyridin-3-yl)-pyrrolidine-3-carboxamide] |
| > 10000 | CC1(C)CN(c2ccccc2)C(=O)[C@]1(O)C(=O)NCc1cc(F)cc(Cl)c1 [A109, N-(3-Chloro-5-fluorobenzyl)-(R)-3-hydroxy-4,4-dimethyl-2-oxo-1-phenylpyrrolidine-3-carboxamide] |
| 10 to 1000 | O=C(NCc1cc(F)cc(Cl)c1)C1(O)CCN(c2ccc3c(c2)c(C(F)(F)F)cn3CO)C1=O (centres unmarked) [A112, N-(3-Chloro-5-fluorobenzyl)-3-hydroxy-1-(1-hydroxymethyl-3-trifluoromethyl-1H-indol-5-yl)-2-oxopyrrolidine-3-carboxamide] |
| 10 to 1000 | O=C1NCCc2ccc(N3CCC(O)(C(=O)NCc4cc(F)cc(Cl)c4)C3=O)cc21 (centres unmarked) [A115, N-(3-Chloro-5-fluorobenzyl)-3-hydroxy-2-oxo-1-(1-oxo-1,2,3,4-tetrahydroisoquinolin-7-yl)-pyrrolidine-3-carboxamide] |
| 10 to 1000 | Cc1cncc(N2CCC(O)(C(=O)NCc3cc(F)cc(Cl)c3)C2=O)c1 (centres unmarked) [A117, N-(3-Chloro-5-fluorobenzyl)-3-hydroxy-1-(5-methylpyridin-3-yl)-2-oxopyrrolidine-3-carboxamide] |
| > 10000 | OC1(CNCc2cc(F)cc(Cl)c2)CCN(c2ccccc2)C1 (centres unmarked) [A120, 3-[(3-chloro-5-fluorobenzylamino)methyl]-1-phenylpyrrolidin-3-ol] |
| 1000 to 10000 | O=C(NCc1cc(F)cc(Cl)c1)C1(O)CCN(Cc2ccccc2)C1 (centres unmarked) [A121, N-(3-chloro-5-fluorobenzyl)-1-benzyl-3-hydroxypyrrolidine-3-carboxamide] |
| 1000 to 10000 | CCS(=O)(=O)N[C@H]1CC[C@H](N2CCC(O)(C(=O)NCc3cc(F)cc(Cl)c3)C2=O)CC1 (some centres unmarked) [A124, N-(3-Chloro-5-fluorobenzyl)-1-(4-ethanesulfonylamino-cyclohexyl)-3-hydroxy-2-oxo-pyrrolidine-3-carboxamide] |
| 1000 to 10000 | O=C(NCc1cc(F)cc(Cl)c1)C1(O)CCN([C@H]2CCC[C@H](O)[C@@H]2O)C1=O (stereo partly drawn) [A125, N-(3-Chloro-5-fluorobenzyl)-1-((1S,2R,3S)-2,3-dihydroxy-cyclohexyl)-3-hydroxy-2-oxo-pyrrolidine-3-carboxamide] |
| 1000 to 10000 | CCS(=O)(=O)NC1CCCC(N2CCC(O)(C(=O)NCc3cc(F)cc(Cl)c3)C2=O)C1 (centres unmarked) [A128, N-(3-Chloro-5-fluorobenzyl)-1-(3-ethanesulfonylamino-cyclohexyl)-3-hydroxy-2-oxo-pyrrolidine-3-carboxamide] |
